Test results from US7589212B2, “Human protein tyrosine phosphatase inhibitors and methods of use” (Procter & Gamble Company, priority 2006, dated 2009).

Legend:
HPTPβ = HPTPβ (Homo sapiens, UniProt P23467); test: HPTPβ inhibition (IC50); assay type: biochemical
PTP1B = biological target: T1, PTP1B (Homo sapiens, UniProt P18031); test: PTP1B inhibition (IC50); assay type: biochemical
T1 sequence (P18031 1-435): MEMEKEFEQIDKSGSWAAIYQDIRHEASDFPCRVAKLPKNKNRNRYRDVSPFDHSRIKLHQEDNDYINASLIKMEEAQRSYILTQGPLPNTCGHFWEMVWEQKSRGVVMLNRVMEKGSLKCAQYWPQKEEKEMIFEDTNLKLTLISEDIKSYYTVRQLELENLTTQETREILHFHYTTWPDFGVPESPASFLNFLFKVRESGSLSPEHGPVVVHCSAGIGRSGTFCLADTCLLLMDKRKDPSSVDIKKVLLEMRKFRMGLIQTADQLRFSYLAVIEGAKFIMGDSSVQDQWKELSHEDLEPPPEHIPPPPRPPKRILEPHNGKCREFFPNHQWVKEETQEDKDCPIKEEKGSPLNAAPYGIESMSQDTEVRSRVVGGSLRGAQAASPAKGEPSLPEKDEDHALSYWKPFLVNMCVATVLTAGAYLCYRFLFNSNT

Sequence of HPTPβ (P23467 23-1997): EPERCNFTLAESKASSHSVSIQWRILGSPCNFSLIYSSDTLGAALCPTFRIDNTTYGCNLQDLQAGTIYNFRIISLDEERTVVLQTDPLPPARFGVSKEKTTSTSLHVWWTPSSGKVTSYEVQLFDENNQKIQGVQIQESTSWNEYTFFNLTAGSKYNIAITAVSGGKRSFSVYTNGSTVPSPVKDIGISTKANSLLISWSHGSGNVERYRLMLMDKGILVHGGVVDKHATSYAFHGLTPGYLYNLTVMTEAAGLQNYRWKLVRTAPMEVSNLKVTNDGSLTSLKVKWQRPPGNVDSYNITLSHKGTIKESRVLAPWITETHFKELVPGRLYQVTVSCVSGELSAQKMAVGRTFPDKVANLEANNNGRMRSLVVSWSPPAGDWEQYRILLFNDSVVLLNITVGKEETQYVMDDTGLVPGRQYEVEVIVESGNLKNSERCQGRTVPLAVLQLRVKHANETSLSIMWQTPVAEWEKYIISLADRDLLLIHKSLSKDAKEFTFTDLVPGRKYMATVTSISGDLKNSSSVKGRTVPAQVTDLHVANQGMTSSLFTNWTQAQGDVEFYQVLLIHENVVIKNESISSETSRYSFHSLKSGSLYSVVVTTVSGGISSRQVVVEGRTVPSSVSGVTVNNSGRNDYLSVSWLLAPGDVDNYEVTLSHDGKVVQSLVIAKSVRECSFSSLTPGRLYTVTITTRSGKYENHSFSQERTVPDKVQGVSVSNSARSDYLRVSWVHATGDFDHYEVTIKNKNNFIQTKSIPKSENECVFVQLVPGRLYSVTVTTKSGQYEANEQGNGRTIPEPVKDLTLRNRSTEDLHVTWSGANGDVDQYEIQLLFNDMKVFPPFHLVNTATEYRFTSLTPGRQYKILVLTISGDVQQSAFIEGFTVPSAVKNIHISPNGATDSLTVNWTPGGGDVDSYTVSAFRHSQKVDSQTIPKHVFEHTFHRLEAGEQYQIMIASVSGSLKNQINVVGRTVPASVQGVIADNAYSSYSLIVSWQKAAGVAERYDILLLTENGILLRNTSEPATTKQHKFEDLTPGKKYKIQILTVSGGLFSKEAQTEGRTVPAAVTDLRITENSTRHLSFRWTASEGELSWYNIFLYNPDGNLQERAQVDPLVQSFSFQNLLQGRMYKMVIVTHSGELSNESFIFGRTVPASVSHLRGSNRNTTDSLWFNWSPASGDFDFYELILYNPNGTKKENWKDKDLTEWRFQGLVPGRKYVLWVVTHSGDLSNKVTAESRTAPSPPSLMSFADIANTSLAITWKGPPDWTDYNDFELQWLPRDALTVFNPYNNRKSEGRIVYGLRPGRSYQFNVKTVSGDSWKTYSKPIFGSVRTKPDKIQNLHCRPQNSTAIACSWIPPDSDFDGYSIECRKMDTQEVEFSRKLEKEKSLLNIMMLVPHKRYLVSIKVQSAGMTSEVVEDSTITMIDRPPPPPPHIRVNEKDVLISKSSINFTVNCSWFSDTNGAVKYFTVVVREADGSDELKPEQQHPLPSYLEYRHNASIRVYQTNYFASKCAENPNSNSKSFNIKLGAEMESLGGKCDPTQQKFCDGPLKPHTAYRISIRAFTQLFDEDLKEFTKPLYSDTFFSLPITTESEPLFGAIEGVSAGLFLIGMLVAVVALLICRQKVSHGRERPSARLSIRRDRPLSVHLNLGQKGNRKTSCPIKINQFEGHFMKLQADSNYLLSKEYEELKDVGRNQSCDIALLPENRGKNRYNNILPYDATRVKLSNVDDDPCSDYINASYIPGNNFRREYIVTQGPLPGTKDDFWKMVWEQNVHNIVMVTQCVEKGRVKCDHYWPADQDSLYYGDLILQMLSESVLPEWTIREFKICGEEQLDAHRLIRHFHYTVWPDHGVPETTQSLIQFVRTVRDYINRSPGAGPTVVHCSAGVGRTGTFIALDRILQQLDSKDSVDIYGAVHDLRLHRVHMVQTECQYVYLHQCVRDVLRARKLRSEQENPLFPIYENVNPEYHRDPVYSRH

Row | Structure (SMILES) | IC50 (HPTPβ) [nM] | IC50 (PTP1B) [nM]
1 | COC(=O)Cc1nnc(N[C@@H](Cc2ccc(NS(=O)(=O)O)cc2)c2csc(-c3cccs3)n2)s1 [4-((S)-2-(5-((Methoxycarbonyl)methyl)-1,3,4-thiadiazol-2-ylamino)-2-(2-(thiophen-2-yl)thiazol-4-yl)ethyl)phenylsulfamic acid] | 2 | 1550
2 | O=S(=O)(O)Nc1ccc(C[C@H](Nc2nnc(-c3ccccc3)s2)c2csc(-c3ccccc3)n2)cc1 [(S)-4-(2-(5-Phenyl-1,3,4-thiadiazol-2-ylamino)-2-(2-phenylthiazol-4-yl)ethyl)-phenylsulfamic acid] | 46 | 3700
3 | Cc1nnc(N[C@@H](Cc2ccc(NS(=O)(=O)O)cc2)c2csc(-c3ccccc3)n2)s1 [(S)-4-(2-(5-methyl-1,3,4-thiadiazol-2-ylamino)-2-(2-phenylthiazol-4-yl)ethyl)phenylsulfamic acid] | 3 | 1400

These reach a lower IC50 (HPTPβ). Values come first.

Row | IC50 (HPTPβ) [nM] | IC50 (PTP1B) [nM] | Structure (SMILES)
4 | 0.6 | 3860 | O=S(=O)(O)Nc1ccc(C[C@H](Nc2nnc(Cc3ccccc3)s2)c2csc(-c3cccs3)n2)cc1 [4-((S)-2-(5-Benzyl-1,3,4-thiadiazol-2-ylamino)-2-(2-(thiophen-2-yl)thiazol-4-yl)ethyl)phenylsulfamic acid]
5 | 0.2 | 4710 | CCCc1nnc(N[C@@H](Cc2ccc(NS(=O)(=O)O)cc2)c2csc(-c3cccs3)n2)s1 [4-((S)-2-(5-Propyl-1,3,4-thiadiazol-2-ylamino)-2-(2-(thiophen-2-yl)thiazol-4-yl)ethyl)phenylsulfamic acid]
6 | 0.009 | 580 | Cc1nc(Cc2nnc(N[C@@H](Cc3ccc(NS(=O)(=O)O)cc3)c3csc(-c4cccs4)n3)s2)cs1 [4-((S)-2-(5-((2-Methylthiazol-4-yl)methyl)-1,3,4-thiadiazol-2-ylamino)-2-(2-(thiophen-2-yl)thiazol-4-yl)ethyl)phenylsulfamic acid]
